Patent US20220168206A1, “ACTIVE AGENT FOR USE IN HAIR GROWTH REGULATION” (MONASTERIUM LABORATORY SKIN & HAIR RESEARCH SOLUTIONS GMBH, priority 2019, published 2022)

Experiments:
[1] = system: TAS2R4 in anagen hair follicles; assay: Activation of TAS2R4 with Rubusoside in cultured hair follicles; type: cell-based, human
Experimental: (§1) For analyzing the effect of activating TAS2R4 by the agonist Rubusoside, hair follicles were cultured in WEM medium supplemented with 2 mM L-glutamine, 10 ng/mL hydrocortisone, 10 μg/mL insulin and 1% penicillin/streptomycin mix (WCM medium), and treated either with 50 μM Rubusoside (Sigma-Aldrich, cat. 62933) diluted in DMSO or vehicle (0.05% DMSO in WCM medium) according to the following procedure:
(§2) Day 0: Isolation of anagen hair follicles
Day 1: Change media, application of the substance corresponding to experimental groups (control group: 0.05% DMSO, experimental group: 50 μM Rubusoside)
(§3) Day 6: Collection and freezing of hair follicles for analyses

[2] = system: TAS2R4 in anagen hair follicles; assay: Inactivation of TAS2R4 with BCML in cultured hair follicles; type: cell-based, human
Experimental: For analyzing the effect of inactivating TAS2R4, by the inverse agonist Nα,Nα-bis(carboxymethyl)-l-lysine (BCML), hair follicles were cultured in WEM medium supplemented with 2 mM L-glutamine, 10 ng/mL hydrocortisone, 10 μg/mL insulin and 1% penicillin/streptomycin mix (WCM medium), and treated either with 120 μM BCML (Sigma-Aldrich, cat. 14580) diluted in WCM or vehicle (WCM medium) according to the following procedure:
as §2
Day 1: Change media, application of the substance corresponding to experimental groups (control group: WCM, experimental group: 120 μM BCML)
Day 7: Collection and freezing of hair follicles for analyses

[3] = system: TAS2R4 in anagen hair follicles; assay: Activation of TAS2R4 with Stevioside in cultured hair follicles; type: cell-based, human
Experimental: To determine the effect of activating TAS2R4 by the agonist Stevioside, anagen hair follicles were cultured in WEM medium supplemented with 2 mM L-glutamine, 10 ng/mL hydrocortisone, 10 μg/mL insulin and 1% penicillin/streptomycin mix (WCM medium), and treated either with 200 μM Stevioside (Sigma-Aldrich, cat. 50956) diluted in DMSO or vehicle (0.2% DMSO in WCM medium) according to the following procedure: Day 0: Isolation of anagen hair follicles Day 1: Change media, application of the substance corresponding to experimental groups (control group: 0.2% DMSO, experimental group: 200 μM Stevioside) Day 2: Rest Day 3: Change media Day 4: Rest Day 5: Change media Day 6: Rest Day 7: Collection and freezing of hair follicles for analyses

[4] = system: TAS2R4 in human anagen hair follicles; assay: Activation of TAS2R4 with Rebaudioside A in cultured hair follicles; type: cell-based
Experimental: as §1, with “Rebaudioside A, human anagen” for “Rubusoside,”, “follicles from 2 donors” for “follicles”, “200” for “50”, “Rebaudioside A” for “Rubusoside”, “01432)” for “62933)”, “(0.5%” for “(0.05%”
as §2
Day 1: Change WCM media, application of the substance corresponding to experimental groups (control group: 0.5% DMSO, experimental group: 200 μM Rebaudioside A)
as §3

[5] = 120 μM BCML vs vehicle (WCM), collection day 7
[6] = 200 μM Stevioside vs 0.2% DMSO, collection day 7
[7] = 200 μM Rebaudioside A vs 0.5% DMSO, collection day 6

## C=C1C[C@@]23CC[C@H]4[C@@](C)(CCC[C@@]4(C)C(=O)O[C@@H]4O[C@H](CO)[C@@H](O)[C@H](O)[C@H]4O)[C@@H]2CC[C@]1(O[C@@H]1O[C@H](CO)[C@@H](O)[C@H](O)[C@H]1O)C3 [Rubusoside]
[1]; 50 μM Rubusoside vs 0.05% DMSO, collection day 6
  proportion of human hair follicles in catagen stage: increases
[1]; summary statement, Rubusoside
  hair growth: hair growth inhibition

## NCCCC[C@@H](C(=O)O)N(CC(=O)O)CC(=O)O [BCML, Nα,Nα-bis(carboxymethyl)-l-lysine]
[2]; [5]
  apoptosis: does not affect
  hair matrix keratinocyte proliferation: increases
  pigmentation: increases
  proportion of hair follicles in anagen stage: increases
[2]; summary statement, anagen hair follicles, BCML
  hair growth: hair growth promotion

## C=C1C[C@@]23CC[C@H]4[C@@](C)(CCC[C@@]4(C)C(=O)O[C@@H]4O[C@H](CO)[C@@H](O)[C@H](O)[C@H]4O)[C@@H]2CC[C@]1(O[C@@H]1O[C@H](CO)[C@@H](O)[C@H](O)[C@H]1O[C@@H]1O[C@H](CO)[C@@H](O)[C@H](O)[C@H]1O)C3 [Stevioside]
[3]; [6]
  apoptosis: does not affect
  hair matrix keratinocyte proliferation: decreases
  proportion of hair follicles in catagen stage: increases
[3]; summary statement, Stevioside
  hair growth: hair growth inhibition

## C=C1C[C@@]23CC[C@H]4[C@@](C)(CCC[C@@]4(C)C(=O)O[C@@H]4O[C@H](CO)[C@@H](O)[C@H](O)[C@H]4O)[C@@H]2CC[C@]1(O[C@@H]1O[C@H](CO)[C@@H](O)[C@H](O[C@@H]2O[C@H](CO)[C@@H](O)[C@H](O)[C@H]2O)[C@H]1O[C@@H]1O[C@H](CO)[C@@H](O)[C@H](O)[C@H]1O)C3 [Rebaudioside A]
[4]; 200 μM Rebaudioside A vs 0.5% DMSO, 2 donors, collection day 6
  proportion of hair follicles in catagen stage: increases
[4]; [7]
  apoptosis: increases
  hair matrix keratinocyte proliferation: decreases
  pigmentation: hypopigmentation
[4]; summary statement, Rebaudioside A
  hair growth: hair growth inhibition
